US20080045588A1, “Preparation and utility of substituted amphetamines” (Auspex Pharmaceuticals, Inc., priority 2006, published 2008)
Read-outs that look alike come from different tables or passages of the source.

Target: CYP2D6 (Homo sapiens, UniProt P10635)
Assay: In vitro inhibition of human cytochrome P450 enzymes (fluorometric, 3-cyano-7-ethoxycoumarin substrate)
Method: In vitro Inhibition of Human Cytochrome P450 Enzymes
Solution A: NADPH-Regenerating System
To a glass tube on ice were added sequentially: 2% aqueous solution of sodium bicarbonate (10 mL) in NADP^+ (17 mg), glucose-6-phosphate (78 mg) and glucose-6-phosphate dehydrogenase (60 units).
To a glass tube on ice were added sequentially: 0.5 M KH2PO4 (pH 7.4, 2.4 mL), water (9 mL), CYP2D6 (480 μL of 1 picomol/microliter), and 3-cyano-7-ethoxycoumarin (5 mM in 2% acetonitrile-water, 120 microliter).
Solution A was transferred to a 96-well black plate (80 microliter per well), followed by various concentrations of a solution of N-methyl-1-[3,4-methylenedioxyphenyl]-2-aminopropane in 20% acetonitrile-water (20 microliter per well). The reaction was initiated by adding 100 microliter of solution B to each well of the 96-well plate. The plate was incubated for 30 minutes at 37° C. in the dark. The reaction was stopped by adding 75 microliter of stop buffer (4:1 acetonitrile-0.5 M Tris base) to each well, and the end point was measured in a fluorometer plate reader at λex=409 nm and λem=460 nm.

CYP2D6, sequence (P10635 whole entry): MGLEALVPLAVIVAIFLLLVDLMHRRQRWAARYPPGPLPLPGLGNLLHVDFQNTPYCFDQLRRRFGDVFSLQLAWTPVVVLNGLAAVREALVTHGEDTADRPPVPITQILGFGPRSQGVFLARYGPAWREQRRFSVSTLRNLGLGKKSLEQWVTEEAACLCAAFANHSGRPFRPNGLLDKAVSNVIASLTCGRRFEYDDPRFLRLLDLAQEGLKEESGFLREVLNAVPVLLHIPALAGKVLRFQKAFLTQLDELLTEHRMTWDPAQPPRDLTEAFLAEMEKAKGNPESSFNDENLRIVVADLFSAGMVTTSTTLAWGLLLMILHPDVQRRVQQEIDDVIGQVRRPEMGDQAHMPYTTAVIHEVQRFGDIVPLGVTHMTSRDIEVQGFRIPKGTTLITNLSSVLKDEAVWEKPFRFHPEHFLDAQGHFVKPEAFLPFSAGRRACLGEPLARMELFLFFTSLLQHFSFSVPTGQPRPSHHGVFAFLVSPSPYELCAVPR

N[C@@H]1C[C@H]1c1ccccc1 (racemic) [Tranylcypromine, reference compound]
IC50 (read-out: IC50 (inhibition concentration of CYP2D6), CYP2D6, 3-cyano-7-ethoxycoumarin substrate, 30 minutes at 37° C., fluorescence λex=409 nm, λem=460 nm): 2.4 µM

[2H]C1([2H])Oc2ccc(CC(C)NC)cc2O1 (single isomer, unassigned) [example 5, d2-N-methyl-1-(3,4-methylenedioxyphenyl)-2-aminopropane]
IC50: 8 µM

[2H]C([2H])([2H])NC(C)Cc1ccc2c(c1)OC([2H])([2H])O2 (single isomer, unassigned) [example 6, d5-N-methyl-1-(3,4-methylenedioxyphenyl)-2-aminopropane]
IC50: 8 µM

[2H]C(c1ccc2c(c1)OC([2H])([2H])O2)C([2H])(C)NC([2H])([2H])[2H] (single isomer, unassigned) [example 9, d7-N-methyl-1-(3,4-methylenedioxyphenyl)-2-aminopropane]
IC50: 30 µM

CNC(C)Cc1ccc2c(c1)OCO2 (centres unmarked) [N-methyl-1-[3,4-methylenedioxyphenyl]-2-aminopropane, reference compound]
IC50: 3 µM
